Among the test systems are SN12C renal; NCI-H23 lung; RXF 393 renal; RPMI-8226 leukemia; SK-OV-3 ovarian; SW-620 colon; UO-31 renal; CAKI-1 renal; HCT-15 colon; SF-268 CNS.
Common to all, as to assay: DTP human tumour cell line panel, 48 h

As usually defined, the TGI is the concentration giving total growth inhibition. Lower therefore signals more potent growth arrest. A word on the GI50: it is the concentration that inhibits growth by half.

Molecules are shown by their SMILES.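 Five compound concentrations were applied to cells in 96-well plates for 48 hours; endpoints were derived by simple linear interpolation of the resulting dose-response curve. Abbreviation: GI50, concentration required for 50% inhibition of growth. Definition used: TGI = concentration required for complete inhibition of growth.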

On to `O=C1C2C3C=C4c5ccccc5N(c5ccccc5)C4(C2C(=O)N1c1ccc(Br)cc1)[C@H]1C(=O)N(c2ccc(Br)cc2)C(=O)[C@@H]31` (some centres undefined), for which the TGI in the experiment with SN12C renal, in the experiment with NCI-H23 lung, with RXF 393 renal, with RPMI-8226 leukemia, in the experiment with SK-OV-3 ovarian and in the experiment with SW-620 colon was greater than 100 µM in each case. Further, the TGI is greater than 100 µM with UO-31 renal, 81.5 µM with CAKI-1 renal and greater than 100 µM in the experiment with HCT-15 colon.
Turning to `S=C=NCCc1ccccc1`, the TGI in the experiment with SN12C renal came out at 0.987 µM; in the experiment with NCI-H23 lung it was 1.31 µM; with RXF 393 renal, 1.42 µM; in the experiment on RPMI-8226 leukemia, 2.04 µM; in the experiment on SF-268 CNS, 3.65 µM; in the experiment with SK-OV-3 ovarian, 3.24 µM. The TGI came out at 1.08 µM with SW-620 colon, 3.94 µM in the experiment on UO-31 renal and 1.12 µM in the experiment on HCT-15 colon.
In the case of `CCN1C[C@]2(COC)[C@H](O)C[C@H](OC)[C@]34C1[C@H]([C@H](OC)[C@H]23)[C@]1(OC(C)=O)[C@H]2[C@@H](OC(=O)c3ccccc3)[C@](O)(C[C@H]24)[C@@H](OC)[C@@H]1O`, the TGI in the experiment with SN12C renal, in the experiment on NCI-H23 lung, with SF-268 CNS, in the experiment on SK-OV-3 ovarian, in the experiment on SW-620 colon and with UO-31 renal was greater than 100 µM in each case. For the same compound, the concentration for total growth inhibition (TGI) in the experiment with CAKI-1 renal and in the experiment with HCT-15 colon was greater than 100 µM each time.
Turning to `C#CCN(C(=O)C(F)(F)F)c1ccc(C(=O)c2ccc(N(CC#C)C(=O)C(F)(F)F)cc2)cc1`, the TGI in the experiment with SN12C renal is greater than 100 µM; with NCI-H23 lung it was 71.6 µM; with RXF 393 renal it was greater than 100 µM; in the experiment with RPMI-8226 leukemia it was 51.2 µM; in the experiment on SF-268 CNS, greater than 100 µM; in the experiment with SW-620 colon, greater than 100 µM. Moreover, the TGI with UO-31 renal is greater than 100 µM; in the experiment on HCT-15 colon it was 79.9 µM.
Take `CCCCCCCC(=O)OCC(=O)[C@]1(O)Cc2c(O)c3c(c(O)c2[C@@H](OC2CC(N)C(O)C(C)O2)C1)C(=O)c1c(OC)cccc1C3=O` (some centres undefined): the 50% growth inhibitory concentration (GI50) in the experiment with NCI-H23 lung was 0.0552 µM; in the experiment with SK-OV-3 ovarian, 0.135 µM; in the experiment on SW-620 colon, 0.0403 µM; in the experiment on CAKI-1 renal it was 0.558 µM; with HCT-15 colon, 0.703 µM. The TGI is 0.526 µM with NCI-H23 lung; 0.879 µM with SK-OV-3 ovarian; 1.15 µM with SW-620 colon; 2.43 µM in the experiment on CAKI-1 renal; 2.14 µM in the experiment on HCT-15 colon.
Regarding `CC(=O)NNc1nc(C)c(C(=O)NNC(=O)C(=O)Nc2ccc([N+](=O)[O-])cc2C#N)s1`, the concentration for total growth inhibition (TGI) in the experiment on SN12C renal, with NCI-H23 lung, in the experiment on RPMI-8226 leukemia, in the experiment with SF-268 CNS, with SK-OV-3 ovarian and in the experiment on SW-620 colon was greater than 100 µM each time. Further, the TGI with UO-31 renal and with HCT-15 colon was greater than 100 µM in each case.
Take `CC(=O)c1cc(C(=O)c2ccc3c(c2)Sc2ccccc2N3)c2c(C)cccn12`: the GI50 with SN12C renal was 0.686 µM; in the experiment with NCI-H23 lung it was 0.611 µM; in the experiment with RXF 393 renal it was 0.252 µM; in the experiment on RPMI-8226 leukemia, 0.412 µM; with SF-268 CNS it was 0.915 µM; with SK-OV-3 ovarian, 0.266 µM. Further, the values for the 50% growth inhibitory concentration (GI50) in the experiment on SW-620 colon, in the experiment on UO-31 renal and in the experiment on HCT-15 colon were 0.265 µM, 0.925 µM and 0.294 µM, respectively. Besides, the TGI in the experiment on SN12C renal was greater than 100 µM; in the experiment with NCI-H23 lung it was greater than 100 µM; with RXF 393 renal, 2.37 µM; in the experiment with RPMI-8226 leukemia, 83.4 µM; in the experiment on SF-268 CNS, greater than 100 µM; with SK-OV-3 ovarian it was 10.5 µM. Further, the TGI in the experiment with SW-620 colon was greater than 100 µM; with UO-31 renal, 98.4 µM; in the experiment with HCT-15 colon it was greater than 100 µM.
`CCCCCCCCCCCCCC(=O)CSCCNC(=O)CCNC(=O)[C@@H](O)C(C)(C)COP(=O)(O)OP(=O)(O)OCC1OC(n2cnc3c(N)ncnc32)C(O)C1OP(=O)(O)O` (some centres undefined): the TGI worked out at 34.5 µM with SN12C renal; 42 µM in the experiment with NCI-H23 lung; 42.3 µM in the experiment with RXF 393 renal; 47.7 µM in the experiment on SF-268 CNS; 27.8 µM in the experiment with SK-OV-3 ovarian; 55.5 µM in the experiment on SW-620 colon. In addition, the figures for the concentration for total growth inhibition (TGI) in the experiment on UO-31 renal and with HCT-15 colon were 27.6 µM and 42.7 µM, respectively.
Consider `Cc1ccc(C)c(NC(=O)CC2SC(=Nc3ccccc3Cl)NC2=O)c1` (centres undefined), for which the concentration for total growth inhibition (TGI) in the experiment on SN12C renal, in the experiment with NCI-H23 lung, in the experiment with RXF 393 renal, in the experiment with SF-268 CNS, in the experiment on SK-OV-3 ovarian and in the experiment with SW-620 colon was greater than 100 µM in each case. For the same compound, the concentration for total growth inhibition (TGI) in the experiment on UO-31 renal, with CAKI-1 renal and in the experiment with HCT-15 colon was greater than 100 µM throughout.
Turning to `CN(C)CCNC(=O)c1cccc2ccc(-c3ccc(-c4ccccc4)cc3)nc12`, the TGI is 20.2 µM with SN12C renal; 16.6 µM with NCI-H23 lung; 6.15 µM in the experiment on RXF 393 renal; 10.4 µM in the experiment on SF-268 CNS; 31.5 µM in the experiment on SK-OV-3 ovarian; 4.74 µM in the experiment with SW-620 colon. The total growth inhibition concentration (TGI) with UO-31 renal is 24.7 µM; with CAKI-1 renal it was 11 µM; in the experiment on HCT-15 colon, 4.14 µM.
In the case of `Cc1cc(Cl)ccc1Nc1nc(C(F)(F)F)ccc1C(=O)N/N=C/c1ccccc1Cl`, the GI50 in the experiment with SN12C renal was 1.45 µM; in the experiment with NCI-H23 lung, 0.775 µM; in the experiment with RXF 393 renal, 1.48 µM; in the experiment on SF-268 CNS, 0.811 µM; with SK-OV-3 ovarian, 0.874 µM; with SW-620 colon, 0.667 µM. Moreover, the figures for the GI50 with UO-31 renal, in the experiment with CAKI-1 renal and in the experiment on HCT-15 colon were 1.29 µM, 2.82 µM and 0.438 µM, respectively. Besides, the TGI is greater than 54.3 µM in the experiment on SN12C renal; 4.89 µM with NCI-H23 lung; 4.41 µM in the experiment on RXF 393 renal; 6.05 µM in the experiment with SF-268 CNS; 4.95 µM with SK-OV-3 ovarian; 6.02 µM in the experiment with SW-620 colon. Moreover, the TGI in the experiment with UO-31 renal came out at 4.15 µM; with CAKI-1 renal, 7.72 µM; with HCT-15 colon it was 16.5 µM.
Regarding `COc1cc2c(=O)n(CCN(C)C)c3c4cc5c(cc4ccc3c2cc1OC)OCO5`, the GI50 in the experiment on SN12C renal is 0.226 µM; with NCI-H23 lung it was 0.212 µM; in the experiment with RXF 393 renal, 0.363 µM; in the experiment with RPMI-8226 leukemia, 0.159 µM; with SF-268 CNS it was 0.222 µM; in the experiment on SK-OV-3 ovarian, 0.275 µM. Further, the values for the concentration for 50% growth inhibition (GI50) in the experiment on SW-620 colon, with UO-31 renal and in the experiment with HCT-15 colon were 0.239 µM, 0.119 µM and 0.391 µM, respectively. In addition, the concentration for total growth inhibition (TGI) in the experiment with SN12C renal was greater than 50 µM; with NCI-H23 lung, 1.38 µM; in the experiment on RXF 393 renal, 1.14 µM; in the experiment with RPMI-8226 leukemia it was 0.8 µM; with SK-OV-3 ovarian it was 1.87 µM; in the experiment on SW-620 colon, 6.87 µM. In addition, the TGI in the experiment with UO-31 renal is 0.48 µM; in the experiment on HCT-15 colon, 1.83 µM.
Consider `O=C1c2ccccc2C(=O)c2c(NCC3CO3)ccc(NCC3CO3)c21` (centres undefined), for which the TGI in the experiment with SN12C renal is 2.06 µM; with NCI-H23 lung it was 8.71 µM; with RXF 393 renal, 11.8 µM; in the experiment with RPMI-8226 leukemia, 33.3 µM; in the experiment on SK-OV-3 ovarian, greater than 47 µM; in the experiment with SW-620 colon, 6.04 µM. Also, the TGI was 5.13 µM in the experiment on UO-31 renal, 7.79 µM with CAKI-1 renal and greater than 22.5 µM in the experiment on HCT-15 colon.
With `COc1ccccc1NS(=O)(=O)c1ccc2oc(SC(C)C)nc2c1`, the GI50 with SN12C renal was 15.5 µM; in the experiment with NCI-H23 lung, 8.66 µM; in the experiment with RPMI-8226 leukemia it was 2.4 µM; in the experiment with SF-268 CNS, 29.5 µM; with SK-OV-3 ovarian, 33.5 µM; with SW-620 colon, 31.6 µM. Also, the results for the GI50 with UO-31 renal, in the experiment with CAKI-1 renal and in the experiment with HCT-15 colon were 18.4 µM, 17 µM and 29.4 µM, respectively. The TGI in the experiment on SN12C renal is 34.5 µM; with NCI-H23 lung, greater than 100 µM; in the experiment on RPMI-8226 leukemia it was 24.4 µM; in the experiment on SF-268 CNS it was greater than 100 µM; in the experiment on SK-OV-3 ovarian, greater than 100 µM; in the experiment with SW-620 colon, greater than 100 µM. In addition, the values for the TGI in the experiment on UO-31 renal, in the experiment with CAKI-1 renal and in the experiment with HCT-15 colon were 70.3 µM, 68.9 µM and greater than 100 µM, respectively.
Take `C=C(C)C(=O)O[C@@H]1C/C(C)=C\[C@H](OC(C)=O)C[C@](C)(O)/C=C2/OC(=O)C(COC(C)=O)=C21`: the TGI in the experiment with SN12C renal was 2.85 µM; with NCI-H23 lung it was 5.21 µM; with RPMI-8226 leukemia, 1.73 µM; with SK-OV-3 ovarian, 18.7 µM; with SW-620 colon, 1.93 µM; in the experiment with UO-31 renal it was 3.26 µM. Besides, the TGI with CAKI-1 renal amounted to 0.99 µM; in the experiment on HCT-15 colon, 0.786 µM.
Turning to `O=C(C/C(CCC(=O)N(Cc1ccccc1)Cc1ccccc1)=N/Nc1ccc([N+](=O)[O-])cc1[N+](=O)[O-])c1ccccc1`, the concentration for total growth inhibition (TGI) with NCI-H23 lung, in the experiment on RPMI-8226 leukemia, in the experiment with SF-268 CNS, in the experiment on SK-OV-3 ovarian, in the experiment on SW-620 colon and with UO-31 renal was greater than 100 µM in each case. Moreover, the TGI in the experiment with HCT-15 colon was greater than 100 µM.
`COC1C2c3cc4c(cc3CC(C#N)(c3ccccc32)N1C(=O)c1ccccc1)OCO4` (centres undefined): the TGI in the experiment with SN12C renal, with NCI-H23 lung, in the experiment with RXF 393 renal, with RPMI-8226 leukemia, in the experiment on SF-268 CNS and in the experiment with SK-OV-3 ovarian was greater than 100 µM throughout. Further, the concentration for total growth inhibition (TGI) in the experiment with SW-620 colon, with UO-31 renal and in the experiment on HCT-15 colon was greater than 100 µM each time.
`CC12CCC3c4cc(Br)c(O)c(Br)c4CCC3C1CCC2O` (centres undefined): the TGI came to 42 µM in the experiment with SN12C renal; 40.5 µM with RXF 393 renal; 49.6 µM with SF-268 CNS; 51.4 µM in the experiment on SK-OV-3 ovarian; 33 µM in the experiment with SW-620 colon; 46.8 µM with UO-31 renal. Moreover, the TGI in the experiment with CAKI-1 renal was 31.5 µM.

For the origin of these results see PubChem BioAssay (NCI).
